The nature of series [1]: Cytotoxicity to uninfected CEM cells (toxicity control of the anti-HIV assay). As to conditions: human; for CC50: CEM cells, read-out: cytotoxicity (IC50); for CC50 at 144 h: uninfected CEM-IW cells, 6 days, XTT, Tables 1-4, read-out: 1C50(Molar) (cytotoxicity). Format: cell-based. From the text: (§1) FIG. 3. Anti-HIV activity of AZTDP-DL-PTBA from the National Cancer Institute Developmental Therapeutics Program In-Vitro Testing Results; NSC 648540-S/1; Plate 5440; Lab 9N; SSPL:129N; Primary Screen Assay; Test Date, Jan. 21, 1992; Solubility Ind.: 1; Report Date, Apr. 27, 1992; Cell Line, CEM-IW; Solvent: Saline<0.9% (MEDIA).
(§2) FIG. 4. Anti-HIV activity of AZddUDP-DL-PTBA from the National Cancer Institute Developmental Therapeutics Program In-Vitro Testing Results; NSC: 648541-T/1; Plate 5466; Lab 9N; SSPL: 129N; Primary Screen Assay; Test Date, Jan. 21, 1992; Solubility Ind.: 1; Report Date, Apr. 27, 1992; Cell Line: CEM-IW; Solvent: Saline<0.9% (MEDIA).
(§3) FIG. 5. Anti-HIV activity of ddCDP-DL-PTBA from the National Cancer Institute Developmental Therapeutic Program In-Vitro Testing Results; NSC: D- 652872-A/1; Plate 24; Lab 9N; Primary Screen Assay; Test Date, Jul. 23, 1992; Solubility Ind.: 1; Report Date: Aug. 7, 1992; Cell Line: CEM-IW; Solvent: Saline<0.9% (MEDIA).
(§4) FIG. 6. Anti-HIV activity of AZTDP-DL-PMA from the National Cancer Institute Developmental Therapeutics Program In-Vitro Testing Results; NSC: D- 652873-C/1; Plate 24; Lab 9N; SSPL: 129N; Primary Screen Assay; Test Date, Jul. 23, 1992; Solubility Ind.: 1; Report Date, Sep. 11, 1992; Cell Line: CEM-IW; Solvent: Saline<0.9% (MEDIA).
(§5) The procedure is designed to detect agents acting at any stage of the virus reproductive cycle (Weislow, et al., J. Natl. Cancer Inst. 81, 577, 1989). The assay basically involves the killing of T4 lymphocytes by HIV. Small amounts of HIV are added to cells, and a complete cycle of virus reproduction is necessary to obtain the required cell killing. Agents that interact with virions, cells, or virus gene-products to interfere with viral activities will protect cells from cytolysis. Compounds that degenerate or are rapidly metabolized in the culture conditions may not show activity in this screen. All tests are compared with at least one positive (e.g., AZT-treated) control done at the same time under identical conditions.
(§6) Compound was dissolved in DMSO then diluted 1:100 in cell culture medium before preparing serial half-log10 dilutions. T4 lymphocytes (CEM cell line) were added and after a brief interval HIV-1 was added, resulting in a 1:200 final dilution of the compound. Uninfected cells with the compound served as a toxicity control, and infected and uninfected without the compound served as basic controls. Cultures were incubated at 37° C. in a 5% CO2 atmosphere for 6 days. The tetrazolium salt, XTT, was added to the wells, and cultures were incubated to allow formazan color development by viable cells. Individual wells were analyzed spectrophotometrically to quantitate formazan production, and in addition were viewed microscopically for detection of viable cells and confirmation of protective activity. Drug-treated virus-infected cells were compared with drug-treated noninfected cells and with other appropriate controls (untreated infected and untreated noninfected cells, drug-containing wells without cells, etc.) on the same plate. Data were reviewed in comparison with other tests done at the same time and a determination about activity was made.
A general note: Tetrazolium dyes change colour on reduction, which living cells bring about.

Series [2] deals with HIV-1. In words: microbe, parasite or virus in culture. Format: cell-based. The note with it: for Conclusion: NCI screen conclusion, Tables 1-4; for conclusion / reported as anti-HIV drug: NCI screening results.
Description: as §1, §2, §3, §4
Anti-HIV evaluation for the compounds was performed at the National Cancer Institute, National Institute of Health and is presented in FIGS. 3-6.
as §5, §6

The test system of series [3] is HIV-infected CEM cells. As to conditions: liposomal, range over the compounds named, read-out: IC50, antiretroviral activity; cited from earlier work.
Series [4] relates to HIV-infected U937. The note with it: liposomal, range over the compounds named, read-out: IC50, antiretroviral activity; cited from earlier work.
Setting [5] is: Human immunodeficiency virus 1, CCRF-CEM, read-out: 50% of the protection (EC50).
Setting [6] is: Human immunodeficiency virus 1, CCRF-CEM, 144 h, read-out: EC50(Molar).

Read-outs that look alike come from different tables or passages of the source.

In general, EC50 refers to the concentration giving half of the maximal effect. As to `CCCCCCCCCCCCCCCC(=O)OC(COCCCCCCCCCCCCCC)COP(=O)(O)OP(=O)(O)OC[C@H]1O[C@@H](n2cc(C)c(=O)[nH]c2=O)C[C@@H]1N=[N+]=[N-]` (mixture of isomers) [AZTDP-DL-PMA, 3'-Azido-3'-deoxythymidine-5'-diphosphate-rac-1-O-tetradecyl-2-O-palmitoylglycerol], the viability at 180 µM in series [1] (uninfected cem cells, dose 1.80 × 10^-4 Molar (Table 4), read-out: UNINFECTED RESPONSE Percent of Control) was found to be 109%; in series [2] (Human immunodeficiency virus 1, CCRF-CEM, dose 1.80 × 10^-4 Molar (Table 4), read-out: INFECTED RESPONSE Percent of Control), 66.8%. Further, the viability at 570 µM in series [1] (uninfected cem cells, dose 5.70 × 10^-4 Molar (Table 4), read-out: UNINFECTED RESPONSE Percent of Control) stood at 109%; in series [2] (Human immunodeficiency virus 1, CCRF-CEM, dose 5.70 × 10^-4 Molar (Table 4), read-out: INFECTED RESPONSE Percent of Control), 90.7%. Besides, the viability at 57 µM turned out to be 114% in series [1] (uninfected cem cells, dose 5.70 × 10^-5 Molar (Table 4), read-out: UNINFECTED RESPONSE Percent of Control) and 55.8% in series [2] (Human immunodeficiency virus 1, CCRF-CEM, dose 5.70 × 10^-5 Molar (Table 4), read-out: INFECTED RESPONSE Percent of Control). In series [1], the CC50 was 14000 µM. Also, in series [1], the CC50 at 144 h came to 14000 µM. Also, in series [2] (setting [5]), the half-maximal effective concentration (EC50) worked out at 57 µM. Besides, the Conclusion entry in series [2] is “CONFIRMED ACTIVE”. The “conclusion / reported as anti-HIV drug” value in series [2] is reported as “moderate”.

Consider `CCCCCCCCCCCCCCCCCCSCC(COP(=O)(O)OP(=O)(O)OC[C@H]1O[C@@H](n2ccc(=O)[nH]c2=O)C[C@@H]1N=[N+]=[N-])OC(=O)CCCCCCCCCCCCCCC` (mixture of isomers) [AZddUDP-DL-PTBA, 3'-Azido-2',3'-dideoxyuridine-5'-diphosphate-rac-1-S-octadecyl-2-O-palmitoyl-1-thioglycerol], for which the viability at 180 µM in series [1] (uninfected cem cells, dose 1.80 × 10^-4 Molar (Tables 1, 2), read-out: UNINFECTED RESPONSE Percent of Control) is 138%; in series [2] (Human immunodeficiency virus 1, CCRF-CEM, dose 1.80 × 10^-4 Molar (Tables 1, 2), read-out: INFECTED RESPONSE Percent of Control), 103%. For the same compound, the viability at 18 µM amounted to 98.6% in series [1] (uninfected cem cells, dose 1.80 × 10^-5 Molar (Tables 1, 2), read-out: UNINFECTED RESPONSE Percent of Control) and 11.1% in series [2] (Human immunodeficiency virus 1, CCRF-CEM, dose 1.80 × 10^-5 Molar (Tables 1, 2), read-out: INFECTED RESPONSE Percent of Control). Besides, the viability at 1.8 µM in series [1] (uninfected cem cells, dose 1.80 × 10^-6 Molar (Tables 1, 2), read-out: UNINFECTED RESPONSE Percent of Control) was 96.6%; in series [2] (Human immunodeficiency virus 1, CCRF-CEM, dose 1.80 × 10^-6 Molar (Tables 1, 2), read-out: INFECTED RESPONSE Percent of Control), 4.68%. Moreover, the viability at 580 µM in series [1] (uninfected cem cells, dose 5.80 × 10^-4 Molar (Tables 1, 2), read-out: UNINFECTED RESPONSE Percent of Control) stood at 5.01%; in series [2] (Human immunodeficiency virus 1, CCRF-CEM, dose 5.80 × 10^-4 Molar (Tables 1, 2), read-out: INFECTED RESPONSE Percent of Control), 7.96%. The viability at 58 µM in series [1] (uninfected cem cells, dose 5.80 × 10^-5 Molar (Tables 1, 2), read-out: UNINFECTED RESPONSE Percent of Control) came out at 107%; in series [2] (Human immunodeficiency virus 1, CCRF-CEM, dose 5.80 × 10^-5 Molar (Tables 1, 2), read-out: INFECTED RESPONSE Percent of Control), 50.6%. Also, the viability at 5.8 µM in series [1] (uninfected cem cells, dose 5.80 × 10^-6 Molar (Tables 1, 2), read-out: UNINFECTED RESPONSE Percent of Control) came to 94.6%; in series [2] (Human immunodeficiency virus 1, CCRF-CEM, dose 5.80 × 10^-6 Molar (Tables 1, 2), read-out: INFECTED RESPONSE Percent of Control), 6.2%. Moreover, the viability at 0.58 µM in series [1] (uninfected cem cells, dose 5.80 × 10^-7 Molar (Tables 1, 2), read-out: UNINFECTED RESPONSE Percent of Control) came out at 94.6%; in series [2] (Human immunodeficiency virus 1, CCRF-CEM, dose 5.80 × 10^-7 Molar (Tables 1, 2), read-out: INFECTED RESPONSE Percent of Control), 2.69%. Further, the CC50 in series [1] turned out to be 390 µM. Besides, the CC50 at 144 h in series [1] was 590 µM. Besides, the EC50 in series [2] (setting [6]) and in series [2] (setting [5]) was 59 µM each time. In series [2], the Conclusion entry is reported as “CONFIRMED ACTIVE”. In series [2], the “conclusion / reported as anti-HIV drug” value is “moderate”.

For the compound `CCCCCCCCCCCCCCCCCCSCC(COP(=O)(O)OP(=O)(O)OC[C@@H]1CC[C@H](n2ccc(N)nc2=O)O1)OC(=O)CCCCCCCCCCCCCCC` (mixture of isomers) [ddCDP-DL-PTBA, 2',3'-Dideoxycytidine-5'-diphosphate-rac-1-S-octadecyl-2-O-palmitoyl-1-thioglycerol], the viability at 200 µM is 137% in series [1] (uninfected cem cells, dose 2.00 × 10^-4 Molar (Table 3), read-out: UNINFECTED RESPONSE Percent of Control) and 78% in series [2] (Human immunodeficiency virus 1, CCRF-CEM, dose 2.00 × 10^-4 Molar (Table 3), read-out: INFECTED RESPONSE Percent of Control). Besides, the viability at 630 µM in series [1] (uninfected cem cells, dose 6.30 × 10^-4 Molar (Table 3), read-out: UNINFECTED RESPONSE Percent of Control) came out at 125%; in series [2] (Human immunodeficiency virus 1, CCRF-CEM, dose 6.30 × 10^-4 Molar (Table 3), read-out: INFECTED RESPONSE Percent of Control), 98.7%. The viability at 63 µM was determined as 130% in series [1] (uninfected cem cells, dose 6.30 × 10^-5 Molar (Table 3), read-out: UNINFECTED RESPONSE Percent of Control) and 10.2% in series [2] (Human immunodeficiency virus 1, CCRF-CEM, dose 6.30 × 10^-5 Molar (Table 3), read-out: INFECTED RESPONSE Percent of Control). In addition, the CC50 in series [1] worked out at 2800 µM. In addition, the CC50 at 144 h in series [1] turned out to be 2800 µM. In addition, the EC50 in series [2] (setting [6]) and in series [2] (setting [5]) was 130 µM in each case. The Conclusion entry in series [2] is recorded as “CONFIRMED ACTIVE”. Moreover, in series [2], the “conclusion / reported as anti-HIV drug” value is on record as “moderate”. Also, the “TI50(IC/EC)” value in series [2] (ratio IC50/EC50, Tables 2-3) was 2.10 × 10^+1.

The term IC50 denotes the concentration that gives 50% inhibition. On to `CCCCCCCCCCCCCC(=O)OCC(COP(=O)(O)OC[C@H]1O[C@@H](n2cc(C)c(=O)[nH]c2=O)C[C@@H]1N=[N+]=[N-])OC(=O)CCCCCCCCCCCCC` (stereo partly shown) [Dimyristoyl-phosphatidylAZT], for which the IC50 in series [3] was 1.7 to 22 µM; in series [4], 0.2 to 12 µM.

With `CCCCCCCCCCCCCC(=O)OCC(COP(=O)(O)OC[C@@H]1CC[C@H](n2ccc(N)nc2=O)O1)OC(=O)CCCCCCCCCCCCC` (stereo partly shown) [dimyristoylphosphatidylddC], the IC50 in series [3] was 1.7 to 22 µM; in series [4] it was 0.2 to 12 µM.

On to `CCCCCCCCCCCCCC(=O)OCC(COP(=O)(O)OC[C@@H]1CC[C@H](n2cc(C)c(=O)[nH]c2=O)O1)OC(=O)CCCCCCCCCCCCC` (stereo partly shown) [dimyristoylphosphatidylddT], for which the IC50 was 1.7 to 22 µM in series [3] and 0.2 to 12 µM in series [4].

In the case of AZT dipalmitoylglycerol, the IC50 was 1.7 to 22 µM in series [3] and 0.2 to 12 µM in series [4].
